Measurements: patent publication US20260217708A1, “FUSED BENZAZEPINE DERIVATIVES FOR USE IN THE TREATMENT OF CANCER AND EPILEPSY” (UCB BIOPHARMA SRL, priority 2023, published 2026)

Assays:
[1] = target: T1, system Xc^− (Homo sapiens, UniProt Q9UPY5); test: [^14C]L-Cystine uptake assay; format: cell-based; set-up: endogenous in cells; host or cells: H4 cells; settings: H4 cells, sodium-free HEPES buffer, 0.5 μM L-[14C]Cystine and 4.5 μM L-Cystine, 1 hour at 37° C.; read-out: pIC50 [^14C] L-Cystine uptake assay (converted)
T1 sequence (Q9UPY5 1-501): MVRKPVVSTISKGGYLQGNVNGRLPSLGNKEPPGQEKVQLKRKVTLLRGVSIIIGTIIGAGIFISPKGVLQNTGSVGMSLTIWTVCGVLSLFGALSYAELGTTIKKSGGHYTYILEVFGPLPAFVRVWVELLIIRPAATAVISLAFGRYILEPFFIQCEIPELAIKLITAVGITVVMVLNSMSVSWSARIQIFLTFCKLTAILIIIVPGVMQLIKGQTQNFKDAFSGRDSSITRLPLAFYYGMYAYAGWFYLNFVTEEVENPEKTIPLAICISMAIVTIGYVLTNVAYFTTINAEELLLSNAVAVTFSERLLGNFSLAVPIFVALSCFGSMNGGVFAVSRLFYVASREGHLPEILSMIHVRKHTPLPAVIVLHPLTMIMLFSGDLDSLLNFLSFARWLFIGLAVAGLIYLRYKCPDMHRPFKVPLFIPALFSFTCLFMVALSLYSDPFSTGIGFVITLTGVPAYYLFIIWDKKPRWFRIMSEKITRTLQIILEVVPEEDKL
T1 sequence (P08195 1-529 partner): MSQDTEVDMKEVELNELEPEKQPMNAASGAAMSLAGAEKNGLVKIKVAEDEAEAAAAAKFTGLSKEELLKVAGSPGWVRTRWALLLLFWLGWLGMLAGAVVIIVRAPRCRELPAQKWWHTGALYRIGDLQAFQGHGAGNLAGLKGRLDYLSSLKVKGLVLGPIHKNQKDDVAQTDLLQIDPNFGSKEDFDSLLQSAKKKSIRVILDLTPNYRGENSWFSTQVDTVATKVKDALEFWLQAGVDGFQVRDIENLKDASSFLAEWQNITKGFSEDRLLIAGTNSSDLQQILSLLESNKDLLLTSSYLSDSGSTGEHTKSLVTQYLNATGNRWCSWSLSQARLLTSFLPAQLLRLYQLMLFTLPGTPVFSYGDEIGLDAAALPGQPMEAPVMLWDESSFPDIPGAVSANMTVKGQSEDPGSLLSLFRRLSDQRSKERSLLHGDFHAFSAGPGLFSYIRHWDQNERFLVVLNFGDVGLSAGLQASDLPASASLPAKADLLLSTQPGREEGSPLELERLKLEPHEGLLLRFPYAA
Text: (§1) The effect of compounds of Formula (I) on the system Xc^− functionality was examined in two independent cell assays: (i) measurement of cystine-induced glutamate release; and (ii) measurement of [^14C]L-Cystine uptake.
(§2) As described above, System Xc^−, also known as the cystine/glutamate antiporter, is an amino acid transporter that mediates the extrusion of intracellular L-glutamate outside the cell and the uptake of extracellular L-cystine into the cell.
(§3) By measuring respectively, the concentration of glutamate released outside the cell and the L-cystine uptaken in the cell, with increasing concentrations of compounds of formula (I) according to the present invention, the efficacy of said compounds to inhibit the System Xc^− function can be evaluated.
(§4) The efficacy of the compounds to inhibit system Xc^− is represented by measuring the IC50 which corresponds to the concentration of compound necessary to inhibit 50% of the signals from the two control groups; DMSO 1% and Erastin 50 μM in the respective assays. pIC50 values correspond to −log of the IC50 in Molar.
In this assay, the medium is devoid of sodium to prevent the transport of glutamate by sodium-dependent excitatory amino acid transporters (EAATs). H4 cells were plated on a 96-well CytoStar-T scintillating microplate (PerkinElmer) at 5×10^4 cells/well in the medium described above. After 1 day, cells were washed one time with the sodium-free HEPES buffer and preincubated with test compounds of Formula (I) (1% final DMSO) for 15 min. Uptake was initiated by adding 0.5 μM L-[1,2, 1′,2′-^14C]Cystine (0.02 mCi/mL, PerkinElmer, Waltham, US) and 4.5 μM L-Cystine (Sigma-Aldrich). After 1 hour at 37° C., plates were counted in a MicroBeta^2 microplate counter (PerkinElmer).

[2] = target: T1, system Xc^−; test: Cystine-induced glutamate release assay; format: cell-based; set-up: endogenous in cells; host or cells: H4 cells; settings: H4 cells, sodium-free HEPES buffer, 50 μM L-Cystine, 2 hours, Amplex Red glutamate readout; read-out: pIC50 Cystine-induced glutamate release assay (converted)
Text: as §1, §2, §3, §4
Measurement of cystine-induced glutamate release indicates levels of glutamate (outside of the cell) that are dependent on system Xc^− antiporter function. Upon the addition of L-Cystine to H4 cells, intracellular glutamate is counter-transported and exported in the supernatant.
In this assay, the medium is devoid of sodium to prevent the transport of glutamate by sodium-dependent excitatory amino acid transporters (EAATs). H4 cells were plated on 384-well culture plate at 1×10^4 cells/well in Dulbecco's Modified Eagle Medium (DMEM) with L-glutamine, penicillin/streptomycin and 10% fetal bovine serum (all from ThermoFisher Scientific) and incubated in a humidified CO2 incubator at 37° C. After 2 days, cells were washed 4 times with prewarmed sodium-free HEPES buffer (contents in mM: HEPES 10, KCl 5.4, CaCl2 2.5, MgCl2 1, KH2PO4 0.4, D-Glucose 5, Choline chloride 140), pH 7.4. Glutamate release was induced by addition of 50 μM of L-Cystine (Sigma-Aldrich), together with a test compound of Formula (I) at 1% final DMSO concentration. After 2 hours of incubation in the culture incubator, supernatants were transferred to a low-binding polypropylene 384-well plate to determine L-glutamate concentration using Amplex™ Red Glutamic Acid Assay Kit (ThermoFisher Scientific). Briefly, 10 μL of Amplex™ Red working solution was added to 10 μL of the supernatant, then the mixture was incubated for 30 min at 37° C. Fluorescence intensity was measured by EnVision microplate reader (PerkinElmer).

Row | SMILES | IC50 [1] [nM] | IC50 [2] [nM]
1 | Cc1cc2c(c(Cl)n1)-c1cccnc1[C@@H](C)C(=O)N2CC(=O)Nc1ccc(C(F)(F)F)cc1 (single isomer, unassigned) [#197, Enantiomer (10R) or (10S) of 2-[3-chloro-5,10-dimethyl-9-oxo-4,8,12-triazatricyclo[9.4.0.0^2,7]pentadeca-1(11),2,4,6,12,14-hexaen-8-yl]-N-[4-(trifluoromethyl)phenyl]acetamide] | < 15.8 | < 15.8
2 | Cc1cc2c(c(F)n1)-c1ccnn1[C@@H](C)C(=O)N2CC(=O)Nc1ccc(C(F)(F)F)cc1 (single isomer, unassigned) [#198, Enantiomer (7R) or (7S) of 2-[14-fluoro-7,12-dimethyl-8-oxo-5,6,9,13-tetrazatricyclo[8.4.0.0^2,6]tetradeca-1(10),2,4,11,13-pentaen-9-yl]-N-[4-(trifluoromethyl)phenyl]acetamide] | 39.8 to 100 | 39.8 to 100
3 | CO[C@H]1C(=O)N(CC(=O)Nc2ccc(C(F)(F)F)cc2)c2cc(C)nc(Cl)c2-c2ccccc21 (single isomer, unassigned) [#199, Entnaiomer (7R) or (7S) of 2-[1-chloro-7-methoxy-3-methyl-6-oxo-7H-pyrido[4,3-d][3]benzazepin-5-yl]-N-[4-(trifluoromethyl)phenyl]acetamide] | < 15.8 | 15.8 to 39.8
4 | Cc1cc2c(c(F)n1)-c1cccnc1[C@@H](C)C(=O)N2CC(=O)Nc1ccc(Cl)c(F)c1 (single isomer, unassigned) [#200, Enantiomer (10R) or (10S) of N-(4-chloro-3-fluoro-phenyl)-2-[3-fluoro-5,10-dimethyl-9-oxo-4,8,12-triazatricyclo[9.4.0.0^2,7]pentadeca-1(11),2(7),3,5,12,14-hexaen-8-yl]acetamide] | < 15.8 | 15.8 to 39.8
5 | Cc1cc2c(cn1)-c1cccnc1[C@@H](C)C(=O)N2CC(=O)Nc1ccc(C(F)(F)F)cc1 (single isomer, unassigned) [#201, Enantiomer (10R) or (10S) of 2-[5,10-dimethyl-9-oxo-4,8,12-triazatricyclo[9.4.0.0^2,7]pentadeca-1(11),2(7),3,5,12,14-hexaen-8-yl]-N-[4-(trifluoromethyl)phenyl]acetamide] | < 15.8 | 15.8 to 39.8
6 | Cc1cc2c(c(F)n1)-c1cncnc1[C@@H](C)C(=O)N2CC(=O)Nc1ccc(C(F)(F)F)cc1 (single isomer, unassigned) [#202, Enantiomer (8R) or (8S) of 2-[15-fluoro-8,13-dimethyl-9-oxo-4,6,10,14-tetrazatricyclo[9.4.0.0^2,7]pentadeca-1(15),2(7),3,5,11,13-hexaen-10-yl]-N-[4-(trifluoromethyl)phenyl]acetamide] | 15.8 to 39.8 | 39.8 to 100
7 | [2H]C([2H])([2H])[C@H]1C(=O)N(CC(=O)Nc2ccc(C(F)(F)F)cc2)c2cc(C)nc(F)c2-c2cccnc21 (single isomer, unassigned) [#203, Enantiomer (10R) or (10S) of 2-[3-fluoro-5-methyl-9-oxo-10-(trideuteriomethyl)-4,8,12-triazatricyclo[9.4.0.0^2,7]pentadeca-1(15),2(7),3,5,11,13-hexaen-8-yl]-N-[4-(trifluoromethyl)phenyl]acetamide] | < 15.8 | 15.8 to 39.8
8 | Cc1cc2c(c(F)n1)-c1ccc(C)nc1[C@@H](C)C(=O)N2CC(=O)Nc1ccc(C(F)(F)F)cc1 (single isomer, unassigned) [#204, Enantiomer (10R) or (10S) of 2-[3-fluoro-5,10,13-trimethyl-9-oxo-4,8,12-triazatricyclo[9.4.0.0^2,7]pentadeca-1(11),2(7),3,5,12,14-hexaen-8-yl]-N-[4-(trifluoromethyl)phenyl]acetamide] | < 15.8 | 39.8 to 100
9 | Cc1cc2c(c(=O)[nH]1)-c1ccccc1[C@@H](C)C(=O)N2CC(=O)Nc1ccc(C(F)(F)F)cc1 (single isomer, unassigned) [#205, Entnaiomer (7R) or (7S) of 2-[3,7-dimethyl-1,6-dioxo-2,7-dihydropyrido[4,3-d][3]benzazepin-5-yl]-N-[4-(trifluoromethyl)phenyl]acetamide] | < 15.8 | 15.8 to 39.8
10 | Cc1cc2c(c(F)n1)-c1cccnc1[C@@H](CO)C(=O)N2CC(=O)Nc1ccc(C(F)(F)F)cc1 (single isomer, unassigned) [#206, Enantiomer (10S) or (10R) of 2-[(3-fluoro-10-(hydroxymethyl)-5-methyl-9-oxo-4,8,12-triazatricyclo[9.4.0.0^2,7]pentadeca-1(11),2(7),3,5,12,14-hexaen-8-yl]-N-[4-(trifluoromethyl)phenyl]acetamide] | < 15.8 | 39.8 to 100
11 | Cc1cc2c(c(Cl)n1)-c1cncnc1[C@@H](C)C(=O)N2CC(=O)Nc1ccc(C(F)(F)F)cc1 (single isomer, unassigned) [#207, Enantiomer (8S) or (8R) of 2-[15-chloro-8,13-dimethyl-9-oxo-4,6,10,14-tetrazatricyclo[9.4.0.0^2,7]pentadeca-1(11),2,4,6,12,14-hexaen-10-yl]-N-[4-(trifluoromethyl)phenyl]acetamide] | < 15.8 | 15.8 to 39.8
12 | Cc1cc2c(n(C)c1=O)-c1cccnc1[C@@H](C)C(=O)N2CC(=O)Nc1ccc(C(F)(F)F)cc1 (single isomer, unassigned) [#208, Enantiomer (10S) or (10R) of N-[4-(trifluoromethyl)phenyl]-2-[3,5,10-trimethyl-4,9-dioxo-3,8,12-triazatricyclo[9.4.0.0^2,7]pentadeca-1(11),2(7),5,12,14-pentaen-8-yl]acetamide] | < 15.8 | < 15.8
13 | COc1cc2c(c(F)n1)-c1cccnc1[C@@H](C)C(=O)N2CC(=O)Nc1ccc(C(F)(F)F)cc1 (single isomer, unassigned) [#209, Enantiomer (10S) or (10R) of 2-[3-fluoro-5-methoxy-10-methyl-9-oxo-4,8,12-triazatricyclo[9.4.0.0^2,7]pentadeca-1(15),2(7),3,5,11,13-hexaen-8-yl]-N-[4-(trifluoromethyl)phenyl]acetamide] | 15.8 to 39.8 | 15.8 to 39.8
